Experimental data as given in patent publication US20150004620A1, “METHOD OR DEVICE FOR IDENTIFYING INHIBITOR OF EPITHELIAL MESENCHYMAL TRANSITION” (Agency for Science, Technology and Research, priority 2011, published 2015).

Key:
Format in all cases: cell-based
[1] = test system: HGF-induced EMT in NBT-II cells; assay: EMT spot migration assay, HGF-induced; details: HGF-induced EMT (4 ng/ml HGF), CDR dose response from 6.67 μM, read-out: Cell Dispersion IC 50, HGF
Description: NBT-II cells were stably transfected with mcherry-fluorescent H2B and maintained in DMEM supplemented with 10% fetal bovine serum (FBS, Thermo Scientific), 1 μg/ml puromycin (Sigma) and 100 units/ml penicillin-streptomycin (1× pen-strep, Invitrogen). Cells were grown to 80% confluency in tissue culture flasks prior to plating. Cells were trypsinized and concentrated to a density of 5×10^6 cell/ml in CO2-independent medium (Invitrogen) supplemented with 10% FBS. The cell suspension was then evenly dispersed into the wells of two columns of a 96-well V-bottom plate. Using a robotic liquid-handling station (Bravo, Agilent Technologies), 0.5 μl of cell suspension was transferred from the two columns of the cell suspension-loaded plate and deposited into the center of the wells of two columns of a 96-well clear bottom, black assay plate (Corning). This process was repeated six times so that all 96 wells of the assay plate were deposited with a cell suspension spot. The plate was then sealed to minimize evaporation of the cell suspension spots and transferred to a 37° C., 5% CO2 incubator to allow for cells to attach to the culture surface. After 1 hour, the plate was gently washed with medium once to remove unattached cells, refreshed with 100 μl of assay medium (DMEM supplemented with 10% FBS and 1× pen-strep), and then further incubated to allow for cell-cell contacts to establish in the cell colonies.
Four tiled, non-overlapping images were acquired around the center of each well, and were then stitched together during image analysis to generate a montage covering an area of 3.2 mm×3.2 mm. These images (T1) represent the initial state of the cell colonies before EMT induction.
After the T1 images were acquired, 1 μl of test compounds were transferred from compound stock plates and added to the assay plates. Appropriate negative controls (1 μl DMSO) and positive controls (1 μl 1.0 mM compound in DMSO) were also added into columns 1 and 12 of each assay plate, respectively. […] The cultures were then further incubated overnight.
The next day, 50 μl of growth factor-containing medium was added to each well of the assay-plates. For each of the growth factor-induced EMT spot migration assays, the final growth factor concentrations in each well is optimized to be 20 ng/ml EGF (Sigma), 4 ng/ml HGF (Calbiochem) or 150 ng/ml IGF-1 (R&D Systems), respectively. The cultures were then incubated for another 24 hours, to allow for EMT and sufficient cell motility/dispersion to occur in the cell colonies.
Finally, the cell colonies were imaged again using the microplate imager, as described above. These images (T2) represent the final state of the cell colonies after compound treatment and EMT induction. The acquired T1 and T2 image sets for each assay plate were then sent for image analysis.
The acquisition of each well was obtained by four adjacent field images with no interstice in between. Each field image was loaded and nuclei were initially segmented independently of other fields to prevent artifact at the field border. Nuclei segmentation was achieved by combining a wavelet transform which is robust to noise and unhomogeneous background, and a watershed algorithm based on intensities to split nuclei clusters. Mask of nuclei segmentation of the different fields were then stitched together in order to obtain a large segmentation of the whole well. Cell bodies were estimated by applying a morphological dilation on the nucleus segmentation using a disk of 30 pixels (48 μm) in diameter. In cells that are contiguous, such as in a cell colony, nuclei segmentation dilation will result in the formation of continuous region areas with surrounding cells which can then be identified as colonies.
Total cell number and spreading coefficient values for each well were then exported into an Excel sheet.

E-cadherin [2] = assay: Western blot of EMT marker E-cadherin in growth factor-treated NBT-II cells; details: NBT-II cells, 0.5, 2 and 8 μM compound overnight, then EGF, HGF or IGF-1 for 24 h (FIG. 7)
Description: NBT-II cells were treated with compounds at 0.5, 2 and 8 μM overnight and incubated with a growth factor for 24 h. Cells were lysed with protease/phosphatase inhibitor-containing RIPA buffer. Proteins are separated in 8% polyacrylamide gels and transferred to PDVF membranes. Membranes were blocked in 5% BSA and incubated at 4° C. overnight with MMP-13 (Millipore), E-cadherin (BD) and α-tubulin (Sigma) primary antibodies. Membranes were then developed with HRP-conjugated secondary antibody (Amersham) and ECL substrate (Millipore).
The possibilities that ALK5, MEK, PI3K and SRC targeting compounds could modulate the expression of EMT markers, such as E-cadherin and matrix metalloproteinase-13 (MMP-13) under EMT-activated conditions were also investigated (FIG. 7). With the exception of P13K inhibitor GDC-0941, the compounds in general abrogated MMP-13 expression in growth factor-treated samples, PI3K inhibition has been previously shown to augment MMP-13 expression. […] These findings are consistent with previous reports showing that ALK5, MEK and SRC play a role in cell motility and tumor progression, while PI3K predominately regulates cell proliferation.

E-cadherin [3] = assay: Western blot of E-cadherin in ovarian carcinoma cell lines; details: panel of ovarian carcinoma cell lines, 2 μM for 48 hours vs 0.02% DMSO
Description: FIG. 11 is a western blot image showing the increase in epithelial marker E-cadherin expression and the decrease of mesenchymal marker MMP-13 expression in panel of ovarian carcinoma cell lines treated with AZD0530. Cell lines were treated with 2 μM AZD0530 or 0.02% DMSO control for 48 hours. Thus, FIG. 11 provides an example of possible downstream analysis that may be conducted subsequent to the detection of possible inhibitor by the method as described herein. In this figure, western blot analysis was used to validate the possible inhibitor detected by the method as described herein.
For western blot experiments with other cell lines, cells are treated either with AZD0530, such as 2 μM AZD0530 or DMSO, such as 0.02% DMSO control for 48 h. The samples are then processed using the same procedure as described above. The samples were probed with MMP-13, E-cadherin, plakoglobin (Cell Signaling), α-tubulin, and β-actin (Cell Signaling) antibodies.

[4] = test system: lung carcinoma cell lines; assay: Phase contrast cell morphology, lung carcinoma cell lines; details: A549, Calu-1 and H165.0 cell lines, 2 μM for 48 hours vs 0.02% DMSO
Description: Cell lines were treated with 2 μM AZD0530 or 0.02% DMSO control for 48 hours. Scale bar is 100 μm. Thus, FIG. 8 provides an example of how the method as described herein may be validated by the use of various lung carcinoma cell lines.

In the case of CN1CCN(CCOc2cc(OC3CCOCC3)c3c(Nc4c(Cl)ccc5c4OCO5)ncnc3c2)CC1 [AZD0530], the IC50 [1] is reported as 510 nM, the E-cadherin expression (E-cadherin [2]) is reported as “augment E-cadherin expression” and the “Epithelial marker E-cadherin expression” value (E-cadherin [3]) is reported as “increase”. For the same molecule, the “Cell morphology (phase contrast)” value [4] was “compaction of cell morphology”.
